Literature values, collected in PMC8162882 (Chemical Science, 2020).

Conditions: as toxic as the natural product

Substance	Toxicity relative to the natural product (6′-OH replaced by H)
amanin	25–50%
amaninamide	25–50%
